# Source: US12319655B2, “RAF kinase inhibitors and methods of use thereof” (Deciphera Pharmaceuticals, LLC, priority 2021, dated 2025)
# Key:
# [1] = target: C-Raf kinase (SEQ. ID NO: 3) (Homo sapiens (Human), UniProt P04049, Y340D/Y341D); assay: Biochemical Assay for C-Raf (2); conditions: Table J, biochemical assay (2); read-out: CRAF (2)
# Procedure: Biochemical Assay for C-Raf (2)
# Activity of C-Raf kinase (SEQ. ID NO: 3) was determined spectroscopically using a coupled pyruvate kinase/lactate dehydrogenase assay that continuously monitors the ATP hydrolysis-dependent oxidation of NADH (e.g., Schindler et al., Science, 2000, 289, 1938-1942). Assays were conducted in 384-well plates (25 μL final volume) using 3.84 nM C-Raf (Eurofins), 1.5 units pyruvate kinase, 2.1 units lactate dehydrogenase, 1 mM phosphoenol pyruvate, 0.7 mM NADH, 50 nM MEK (SignalChem), and 1 mM ATP in assay buffer (100 mM Tris, pH 7.5, 15 mM MgCl2, 0.5 mM DTT, 0.1% octyl-glucoside, 0.002% (w/v) BSA, and 0.002% Triton X-100). Inhibition of C-Raf was measured by adding serial diluted test compound (final assay concentration of 1% DMSO). A decrease in absorption at 340 nm was monitored hourly for 4 h at 30° C. on a multi-mode microplate reader (BioTek). The reaction rate was calculated using the 2 to 3 h time frame. The reaction rate at each concentration of compound was converted to percent inhibition using controls (i.e., reaction with no test compound and reaction with a known inhibitor) and IC50 values were calculated by fitting a four-parameter sigmoidal curve to the data using Prism (GraphPad software).
# WM3928 cells = assay: WM3928 Cell Proliferation Assay (2); assay type: cell-based
# Procedure: WM3928 Cell Proliferation Assay (2)
# WM3928 cells (#WM3928-01-0001) are obtained from Rockland Immunochemicals Inc (Gilbertsville, PA). Briefly, cells were grown in MCDB 153 medium (Sigma, #M7403, St. Louis, MO) supplemented with 20% Leibovitz's L-15 (ThermoFisher #11415-064, Waltham, MA), 2% heat inactivated fetal bovine serum (ThermoFisher, #A3840001, Waltham, MA), 5 μg/mL Insulin (Bovine Pancreas) (Sigma, #10516, St. Louis, MO), 1.68 mM Calcium Chloride (Sigma, #C-34006, St. Louis, MO) and 1% Penicillin/Streptomycin/L-Glutamine (ThermoFisher #10378016, Waltham, MA) at 37° C., 5% CO2, and 95% humidity. Cells are expanded until reaching 70-95% confluency at which point they are sub-cultured or harvested for assay use. Using the Beckman Coulter Echo 650, a serial dilution of test compound is dispensed into a 384-well black clear bottom plate in triplicate. Seven hundred fifty cells are added per well in 50 μL complete growth medium in the 384-well plate. Plates are incubated for 67-72 hours at 37° C., 5% CO2, and 95% humidity. At the end of the incubation, 10 μL of a 440 μM solution of resazurin (Sigma, #199303, St. Louis, MO) in PBS is added to each well of the plate and plates are incubated for an additional 3-6 hours at 37° C., 5% CO2, and 95% humidity. Plates are read on a Synergy2 or equivalent reader (Biotek, Winooski VT) using an excitation of 540 nm and an emission of 600 nm. Data is analyzed using Prism software (GraphPad, San Diego, CA) to calculate IC50 values.
# [2] = target: B-Raf (V600E) (SEQ. ID NO: 4) kinase (Homo sapiens (Human), UniProt P15056, V600E); assay: Biochemical Assay for B-Raf (V600E) (2); conditions: Table J, BRAF V600E, biochemical assay (2); read-out: BRAF VE (2)
# Procedure: Biochemical Assay for B-Raf (V600E) (2)
# Activity of B-Raf (V600E) (SEQ. ID NO: 4) kinase was determined spectroscopically using a coupled pyruvate kinase/lactate dehydrogenase assay that continuously monitors the ATP hydrolysis-dependent oxidation of NADH (e.g., Schindler et al., Science, 2000, 289, 1938-1942). Assays were conducted in 384-well plates (25 μL final volume) using 0.5 nM B-Raf (deCode), 1.5 units pyruvate kinase, 2.1 units lactate dehydrogenase, 1 mM phosphoenol pyruvate, 0.7 mM NADH, 100 nM MEK (SignalChem), and 1 mM ATP in assay buffer (100 mM Tris, pH 7.5, 15 mM MgCl2, 0.5 mM DTT, 0.1% octyl-glucoside, 0.002% (w/v) BSA, and 0.002% Triton X-100). Inhibition of B-Raf (V600E) was measured by adding serial diluted test compound (final assay concentration of 1% DMSO). A decrease in absorption at 340 nm was monitored hourly for 4 h at 30° C. on a multi-mode microplate reader (BioTek). The reaction rate was calculated using the 3 to 4 h time frame. The reaction rate at each concentration of compound was converted to percent inhibition using controls (i.e., reaction with no test compound and reaction with a known inhibitor) and IC50 values were calculated by fitting a four-parameter sigmoidal curve to the data using Prism (GraphPad software).
# A375 cells = assay: A375 Cell Proliferation Assay (2); assay type: cell-based; conditions: Homo sapiens, A-375
# Procedure: A375 Cell Proliferation Assay (2)
# A375 cells (catalog (#CRL-1619) are obtained from the American Type Culture Collect (ATTC, Manassas, VA). Briefly, cells were grown in DMEM High Glucose supplemented with 10% characterized fetal bovine serum (Invitrogen, Carlsbad, CA) and 1% Penicillin/Streptomycin/L-Glutamine at 37° C., 5% CO2, and 95% humidity. Cells are expanded until reaching 70-95% confluency at which point they are sub-cultured or harvested for assay use. Using the Beckman Coulter Echo 650, a serial dilution of test compound is dispensed into a 384-well black clear bottom plate in triplicate. Six hundred twenty-five cells are added per well in 50 μL complete growth medium in the 384-well plate. Plates are incubated for 67-72 h at 37° C., 5% CO2, and 95% humidity. At the end of the incubation, 10 μL of a 440 μM solution of resazurin (Sigma, St. Louis, MO) in PBS is added to each well of the plate and plates are incubated for an additional 3-6 h at 37° C., 5% CO2, and 95% humidity. Plates are read on a Synergy2 or equivalent reader (Biotek, Winooski VT) using an excitation of 540 nm and an emission of 600 nm. Data is analyzed using Prism software (GraphPad, San Diego, CA) to calculate IC50 values.
# B-Raf (V600E) (SEQ. ID NO: 4) kinase, sequence (P15056 416-766 V600E): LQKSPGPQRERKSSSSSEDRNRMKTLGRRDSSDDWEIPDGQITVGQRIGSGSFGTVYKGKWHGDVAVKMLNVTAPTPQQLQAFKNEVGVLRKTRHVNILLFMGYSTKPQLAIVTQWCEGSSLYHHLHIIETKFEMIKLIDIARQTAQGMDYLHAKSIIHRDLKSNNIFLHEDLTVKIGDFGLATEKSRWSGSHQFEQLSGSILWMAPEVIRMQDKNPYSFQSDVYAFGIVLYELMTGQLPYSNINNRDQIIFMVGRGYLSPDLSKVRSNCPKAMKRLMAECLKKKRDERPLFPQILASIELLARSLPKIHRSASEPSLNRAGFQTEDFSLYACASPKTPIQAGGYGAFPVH
# C-Raf kinase (SEQ. ID NO: 3), sequence (P04049 307-648 Y340D/Y341D): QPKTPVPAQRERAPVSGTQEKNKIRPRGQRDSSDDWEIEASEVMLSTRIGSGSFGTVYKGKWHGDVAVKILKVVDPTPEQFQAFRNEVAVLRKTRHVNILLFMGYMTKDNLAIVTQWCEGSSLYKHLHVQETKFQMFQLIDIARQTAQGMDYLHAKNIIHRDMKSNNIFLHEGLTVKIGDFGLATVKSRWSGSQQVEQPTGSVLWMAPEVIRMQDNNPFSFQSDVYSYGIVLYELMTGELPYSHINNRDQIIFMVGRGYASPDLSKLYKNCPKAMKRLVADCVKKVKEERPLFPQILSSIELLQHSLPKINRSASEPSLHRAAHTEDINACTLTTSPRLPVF
SMILES,IC50 [1],IC50 [2],IC50 (A375 cells),IC50 (WM3928 cells)
CNC(=O)c1cc(-c2cc(-c3cc(NC(=O)c4ccnc(C(C)(C)F)c4)ccn3)ccn2)ccn1 [Example 481],500 to 1000 nM,1000 to 10000 nM,1000 to 10000 nM,1000 to 10000 nM
CNC(=O)c1cc(-c2cc(-c3cc(NC(=O)c4ccnc(C(C)(C)F)c4)ccc3C)c(C)cn2)ccn1 [Example 472],500 to 1000 nM,≤ 100 nM,100 to 500 nM,500 to 1000 nM
Cc1ccc(NC(=O)c2ccnc(C3CC3)c2)cc1-c1ccnc(-c2ccnc(NC(=O)C3CC3)c2)c1 [Example 458],≤ 100 nM,≤ 100 nM,100 to 500 nM,≤ 100 nM
Cc1ncc(NC(=O)c2ccnc(C3(C#N)CC3)c2)cc1-c1ccnc(-c2ccnc(NC(=O)C3CC3)c2)c1 [Example 461],≤ 100 nM,≤ 100 nM,≤ 100 nM,≤ 100 nM
CNC(=O)c1cc(-c2cc(-c3cc(NC(=O)c4ccnc(C(C)(C)F)c4)cnc3C)ccn2)ccn1 [Example 444],≤ 100 nM,≤ 100 nM,100 to 500 nM,100 to 500 nM
Cc1ccc(NC(=O)c2ccnc(C(C)(C)F)c2)cc1-c1ccnc(-c2ccnc(C(=O)NCCO)c2)c1 [Example 448],≤ 100 nM,≤ 100 nM,100 to 500 nM,≤ 100 nM
CNC(=O)c1cc(-c2cc(-c3cc(NC(=O)c4ccnc(C(C)(C)F)c4)ccc3C)cc(OCCO)n2)ccn1 [Example 449],≤ 100 nM,≤ 100 nM,≤ 100 nM,≤ 100 nM
CNC(=O)c1cc(-c2cncc(-c3cc(NC(=O)c4ccnc(C(C)(F)F)c4)ccc3C)c2)ccn1 [Example 440],≤ 100 nM,≤ 100 nM,100 to 500 nM,≤ 100 nM
Cc1cc(-c2cc(NC(=O)c3ccnc(C(C)(C)F)c3)ccc2C)cc(-c2ccnc(C#N)c2)n1 [Example 483],≤ 100 nM,100 to 500 nM,1000 to 10000 nM,500 to 1000 nM
Cc1ccc(NC(=O)c2ccnc(C(C)(C)F)c2)cc1-c1ccnc(-c2ccnc(C#N)c2)c1 [Example 447],≤ 100 nM,100 to 500 nM,1000 to 10000 nM,500 to 1000 nM
CNC(=O)c1cc(-c2cc(-c3cc(NC(=O)c4ccnc(C(C)C)c4)ccc3C)ccn2)ccn1 [Example 443],≤ 100 nM,≤ 100 nM,100 to 500 nM,≤ 100 nM

# Now from value to molecule, other results behind:
IC50 [1],IC50 [2],IC50 (A375 cells),SMILES,IC50 (WM3928 cells)
≤ 100 nM,≤ 100 nM,100 to 500 nM,Cc1ccc(NC(=O)c2ccnc(C(C)(C)F)c2)cc1-c1ccnc(-c2ccnc(C(=O)NCCN(C)C)c2)c1 [Example 453],100 to 500 nM
≤ 100 nM,≤ 100 nM,100 to 500 nM,Cc1ncc(NC(=O)c2ccnc(C(C)C)c2)cc1-c1ccnc(-c2ccnc(NC(=O)C3CC3)c2)c1 [Example 468],≤ 100 nM
≤ 100 nM,≤ 100 nM,100 to 500 nM,CNC(=O)c1cc(-c2cc(-c3cc(NC(=O)c4ccnc(C(C)(C)F)c4)c(F)cc3F)ccn2)ccn1 [Example 482],100 to 500 nM
≤ 100 nM,≤ 100 nM,≤ 100 nM,Cc1ncc(NC(=O)c2ccnc(C(C)(C)F)c2)cc1-c1ccnc(-c2ccnc(NC(=O)C3CC3)c2)c1 [Example 454],≤ 100 nM
≤ 100 nM,≤ 100 nM,100 to 500 nM,CNC(=O)c1cc(-c2cncc(-c3cc(NC(=O)c4ccnc(C(C)(F)F)c4)ccc3C)c2)ncn1 [Example 439],100 to 500 nM
≤ 100 nM,≤ 100 nM,≤ 100 nM,Cc1ccc(NC(=O)c2ccnc(C(C)(C)F)c2)cc1-c1ccnc(-c2ccnc(C(N)=O)c2)c1 [Example 476],≤ 100 nM
≤ 100 nM,100 to 500 nM,1000 to 10000 nM,CNC(=O)c1cc(-c2cc(-c3cc(NC(=O)c4cnnc(C(F)(F)F)c4)ccc3C)ccn2)ccn1 [Example 477],500 to 1000 nM
≤ 100 nM,≤ 100 nM,≤ 100 nM,Cc1cc(-c2cc(NC(=O)c3ccnc(C(C)(C)F)c3)ccc2C)cc(-c2ccnc(C(N)=O)c2)n1 [Example 484],≤ 100 nM
